From patent US6406679B1, “Use of HL-60-related lectins in drug delivery and detection of lectin-expressing cells” (Incyte Pharmaceuticals, Inc., priority 1992, dated 2002)
Blank lines part the entries; values can stand above or below the molecule they belong to.

How the values were obtained:
[1] = target: T1, 14 kD lectins (HL-60 cells, placenta, recombinant E. coli) (Homo sapiens, UniProt P09382); experiment: Inhibition by competing sugars of lectin-induced agglutination of trypsinized rabbit erythrocytes; assay type: biochemical; details: FIG. 5
T1 construct: the N-terminal methionine of the HL-60 lectin appears to be cleaved, and the remaining protein can be acetylated; secretion signal (only the E. coli-made preparation); made in house; host or cells: three preparations tested side by side: purified from HL-60 cells, purified from human placenta tissue, recombinant from E. coli (secretion signal)
T1 sequence (P09382 2-135 limits assumed): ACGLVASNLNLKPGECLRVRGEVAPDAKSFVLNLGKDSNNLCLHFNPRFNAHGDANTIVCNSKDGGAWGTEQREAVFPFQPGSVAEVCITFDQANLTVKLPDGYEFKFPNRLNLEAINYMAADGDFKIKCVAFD
Source text: (§1) Biological activity of the inventive 14 kD lectins 1) isolated from HL-60 cells, 2) isolated from placenta tissue or 3) prepared recombinantly from E. coli cells transfected with lectin cDNA operably linked to a secretion signal was ascertained by agglutination of trypsinized rabbit erythrocytes.

[2] = test system: trypsinized rabbit erythrocytes; experiment: Agglutination of trypsinized rabbit erythrocytes; assay type: cell-based; details: control, FIG. 5
Source text: as §1

[3] = target: epitope recognized by M3 antibody on human blood cells (macrophages) (human); experiment: flow cytometry of human blood cells pretreated with lectin, then stained with fluoresceinated M3 antibody, against untreated control
[4] = target: epitope recognized by M1 antibody on human blood cells (macrophages) (human); experiment: flow cytometry of human blood cells pretreated with lectin, then stained with fluoresceinated M1 antibody, against untreated control

- concentrations inhibiting agglutination of the erythrocytes [1]: greater than 0.31 mM
Molecule: OC[C@H]1O[C@@H](S[C@@H]2O[C@H](CO)[C@H](O)[C@H](O)[C@H]2O)[C@H](O)[C@@H](O)[C@H]1O [Thiodigalactoside, thiodigalactoside]

- concentrations inhibiting agglutination of the erythrocytes [1]: greater than 1.25 mM
Molecule: OC[C@H]1O[C@@H](O[C@H]2[C@H](O)[C@@H](O)[C@H](O)O[C@@H]2CO)[C@H](O)[C@@H](O)[C@H]1O [β-lactose]

Molecule: Concanavalin A
- agglutination end-point [2]: 1.5 µg/mL

- reduction of the percent of positive cells [3]: 26%
- reduction of the percent of positive cells [4]: 33%
Molecule: recombinant 14 kD beta-galactoside-binding soluble lectin (HL-60 / placenta lectin) produced in E. coli (from UniProt P09382 2-135)
